System: human liver microsomes, metabolic stability half-life
Assay: NCATS Human Liver Microsomal (HLM) Stability Profiling
Settings: higher = more stable; screened at 1 µM (by protocol)
Method in brief: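 Substrate depletion (in vitro t1/2): 1 µM compound with 0.5 mg/mL microsomes and NADPH regenerating system, phosphate buffer pH 7.4, 37 °C. Sampled at 0, 5, 10, 15, 30, 60 min into cold acetonitrile with albendazole internal standard for MS quantification.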

Row | Structure (SMILES) | half-life [min]
1 | CC(C)(CNC(=O)c1cccc(-c2noc(C(F)(F)F)n2)c1)c1coc(-c2ccccc2)n1 | 33.1
2 | CCOC(=O)[C@H](CCc1ccccc1)N[C@H]1CS[C@H](c2cccs2)CN(CC(=O)O)C1=O | 6.54
3 | CCCCNc1ncc(C(=O)NCc2ccc(-n3ccnc3)cc2)c(NC2CCC(O)CC2)n1 (stereo not given) | 33
4 | CCN1C(=O)c2ccccc2C1Nc1ccc(OCCN2CCCCC2)cc1 (stereo not given) | 105
5 | CC(C)(C)c1ccc(S(=O)(=O)c2cnc(SCC(=O)Nc3ccc(F)c(Cl)c3)[nH]c2=O)cc1 | 73.1
6 | Cc1nn(C)c2c1C(c1ccc(C(F)(F)F)cc1)C(C#N)=C(N)O2 (stereo not given) | 11
7 | Cc1cccc(N(C)C(=S)Oc2ccc3c(c2)CCC3)c1 | 1.94
8 | Cc1cccc(C)c1NC(=O)CN1CCCC1 | > 120
9 | Nc1c(Br)cc(Br)cc1CNC1CCC(O)CC1 (stereo not given) | 110
10 | CCOc1ccc(CNC(=O)Cn2c(=O)c3cccn3c3ccc(F)cc32)cc1OC | 80.7
11 | COCCCNC(=O)C(=O)Nc1c2c(nn1-c1cccc(Cl)c1)CSC2 | 24.9
12 | CC(C)=CCC1C(=O)N(c2ccccc2)N(c2ccccc2)C1=O | > 120
13 | O=C(O)COC(=O)Cc1ccccc1Nc1c(Cl)cccc1Cl | 2.83
14 | Nc1nc2c(c(N3CCNCC3)n1)CCC1=C2[C@@H]2CCCC[C@@H]2O1 | > 120
15 | CCOC(=O)C1=Cc2ccc(C(F)(F)C(F)(F)F)cc2N=C(N)C1 | 9.93
16 | COCCCNC(=O)CCC(=O)NNc1nc2ccccc2c2nc(-c3ccccc3)nn12 | > 120
17 | CC(=O)N1CCN([C@H]2CCN(C(=O)N(C)[C@H](C)c3cc(C(F)(F)F)cc(C(F)(F)F)c3)[C@@H](c3ccc(F)cc3C)C2)CC1 | 12.8
18 | CC1CC(C)(C)N(C(=O)CN2C(=O)c3ccccc3C2=O)c2ccccc21 (stereo not given) | 8.38
19 | CCCCNc1ncc2c(-c3ccc(F)cc3)nn(CC3CCC(N)CC3)c2n1 (stereo not given) | > 120
20 | Cc1cnc(NC(=O)c2cc(S(=O)(=O)N(C)C)ccc2N2CCCC2)s1 | 24.3
21 | CNC(=O)c1cnn(-c2nc(N)c3ncn([C@@H]4O[C@H](CO)[C@@H](O)[C@H]4O)c3n2)c1 | > 120
22 | NC1(c2ccc(-c3nc4ccn5c(=O)[nH]nc5c4cc3-c3ccccc3)cc2)CCC1 | 83
23 | CC(C)(C)NCC(O)COc1cccc2c1CCC(=O)N2 (stereo not given) | > 120
24 | CCCC(Nc1nc(-c2ccc(NC(=O)NCC)c(OC)c2)ncc1C)c1cccnc1 (stereo not given) | 30.5

Row | Structure (SMILES) | half-life [min]
25 | CN(C)CCN1C(=O)c2ccccc2N(C)c2ccccc21 | > 120
26 | COC(=O)c1ccc([C@H]2c3[nH]c4ccccc4c3C[C@H](C(=O)OC)N2C(=O)CCl)cc1 | 8.55
27 | COc1ccc(C(=O)NC(c2ccccc2Cl)c2cc(Cl)c3cccnc3c2O)cc1 (stereo not given) | 37.1
28 | CCC[C@H](N[C@H]1CCc2cc(F)cc(F)c2C1)C(=O)Nc1cn(C(C)(C)CNCC(C)(C)C)cn1 | 3.12
29 | C#CCN(Cc1cc2c(=O)[nH]c(C)nc2cc1Br)c1ccc(C(=O)NCc2cccnc2)cc1 | 9.7
30 | CC(C)(C)Sc1c(CC(C)(C)C(=O)O)n(Cc2ccc(Cl)cc2)c2ccc(OCc3ccc4ccccc4n3)cc12 | 34
31 | Cc1cccc(NC(=O)Nc2cccs2)c1C | 10.2
32 | CCC(=C(c1ccccc1)c1ccc(OCCN(C)C)cc1)c1ccccc1 | 94.5
33 | CC(CN1c2ccccc2Sc2ccccc21)N(C)C (stereo not given) | 32.3
34 | Cc1ccccc1C(C(=O)NC1CCCCC1)N(C(=O)CNc1ccc(C#N)cc1)c1cccc(F)c1 (stereo not given) | 2.58
35 | COc1ccc2c(c1)CCCC2=O | 17.6
36 | O=c1[nH]c([C@@H]2CCCN2)nc2c1oc1ccc(Cl)cc12 | > 120
37 | CN(C(=O)C(c1ccccc1)c1ccccc1)[C@H](CN1CC[C@H](O)C1)c1ccccc1 | 9.29
38 | Cn1c(=O)c(F)c(Nc2ccc(I)cc2F)c2c(=O)n(CC(O)CO)cnc21 (stereo not given) | > 120
39 | CC[C@@H]([C@H](C)O)n1ncn(-c2ccc(N3CCN(c4ccc(OC[C@@H]5CO[C@@](Cn6cncn6)(c6ccc(F)cc6F)C5)cc4)CC3)cc2)c1=O | > 120
40 | Cc1ccc(O)cc1Nc1ccnc(Nc2cccc(C(N)=O)c2)n1 | 86.5
41 | Cn1nnc2c(C(N)=O)ncn2c1=O | 21.1
42 | COc1cccc(OC)c1-c1nc(C(=O)N[C@@H](CC(C)C)C(=O)O)cn1-c1ccnc2cc(Cl)ccc12 | > 120
43 | CCc1c(O)cc(O)c(C(=O)c2ccc(OCCN3CCOCC3)c(OC)c2)c1CC(=O)N(CCOC)CCOC | 41.4
44 | CCOc1ccc(NC(=O)N2CCN(c3ccc(Cl)c(Cl)c3)CC2)cc1 | > 120
45 | N#CC1C(=O)Nc2scc(-c3ccc(-c4ccccc4O)cc3)c2C1=O (stereo not given) | > 120
46 | Cc1nc2c3ccccc3nc(NNC(=O)CCC(=O)N3CCN(c4cccc(Cl)c4)CC3)n2n1 | 10.9
47 | COc1ccc(CCNC(=O)CCc2c(C)c3cc4c(C)coc4cc3oc2=O)cc1 | 5.41
48 | Oc1ccccc1-c1nnco1 | 43.3

Row | Structure (SMILES) | half-life [min]
49 | COCC1(CO)C(=O)C2CCN1CC2 (stereo not given) | > 120
50 | CCCCNc1c(C(=O)OCC)c(C)nc2c1cnn2CC | 5.85
51 | C/C=C(/C(=C/C)c1ccc(OC(C)=O)cc1)c1ccc(OC(C)=O)cc1 | > 120
52 | CC(C)c1c(NC(=O)Nc2ccc(Cl)cc2)c(=O)n(-c2ccccc2)n1C | > 120
53 | CC1=C(C(=O)Nc2cccc(-c3cn[nH]c3)c2)C(c2ccccc2Cl)N=C(Nc2nc3ccccc3o2)N1 (stereo not given) | 49.1
54 | C=Cc1cc(O)cc2nc(-c3ccc(O)c(F)c3)oc12 | 5.84
55 | C/C(=N/NC(=O)c1ccncc1)C(=O)O | > 120
56 | Cn1c(=O)cc(N2CCCC(N)C2)n(Cc2ccccc2C#N)c1=O (stereo not given) | > 120
57 | Oc1ccc(-c2cnc3ccc(NCc4ccco4)nn23)cc1 | 9.45
58 | Cc1cccc(C)c1OCC(C)N (stereo not given) | 114
59 | CCc1ccc(-n2c(SCc3cccc(F)c3)nc3[nH]ncc3c2=O)cc1 | 80.5
60 | Cc1cccc(/C=N/Nc2cc(N3CCOCC3)n3nc(-c4ccncc4)cc3n2)c1 | 23.1
61 | Clc1ccccc1-c1nc(-c2ccncc2)no1 | 35.8
62 | CC(C)(O)c1ccccc1CC[C@H](SCC1(CC(=O)O)CC1)c1cccc(/C=C/c2ccc3ccc(Cl)cc3n2)c1 | 36.5
63 | COc1ccc(-c2cc3onc(-c4ccncc4)c3c(=O)n2C)cc1 | > 120
64 | COc1ccc(C)cc1Nc1c2c(nc3ccccc13)CCC2 | 29.9
65 | COc1ccc(Nc2cc(-c3cnc(N)nc3)nc(N3CCOCC3)n2)cn1 | 39.3
66 | Nc1ncnc2c1c(COc1cccc(Cl)c1)nn2C1CCOCC1 | 39.9
67 | Cc1cc(C(C)Nc2ccccc2C(=O)O)c2nc(N3CCOCC3)cc(=O)n2c1 (stereo not given) | > 120
68 | C[C@@H](N)c1ccc(C(=O)Nc2ccnc3[nH]ccc23)cc1 | > 120
69 | CC(C)(C)c1ccc(-c2nc(SCC(=O)Nc3ccc(Cl)cc3)[nH]c(=O)c2C#N)cc1 | 19.2
70 | c1cc(-c2cc(C3CCNCC3)[nH]n2)ccn1 | 72.6
